# Values of other authors, collected in US20070149409A1, “Pesticide formulations with substituted biopolymers and organic polymers for improving residual activity, droplet size, adherence and rainfastness on leaves and reduction in soil leaching” (priority 2003, published 2007).
row,Compound,pK / pKa
1,Indole acetic acid,4.7
2,CP(=O)(O)CCC(N)C(=O)O (centres unmarked) [glufosinate],9.8
3,Nc1nc[nH]n1 [Amitrole],9.8
4,CCCC(Cn1cncn1)c1ccc(Cl)cc1Cl (centres unmarked) [penconazole],1.5
5,CCCOC(=O)NCCCN(C)C [propamocarb],4.9
